{"source": "patent US20230141887A1", "about": "“CRYSTAL FORM OF DIAZASPIROPYRAN COMPOUND” (MEDSHINE DISCOVERY INC., priority 2020, published 2023)", "key": {"FLT3(ITD, D835V)": {"molecular_target": "T1, FLT3(ITD, D835V) (Homo sapiens, UniProt P36888, D835V, form not given)", "T1 construct": "fused on or other part: DNA tag for the qPCR read-out (the KINOMEscan format)", "T1 sequence (P36888 1-993 D835V)": "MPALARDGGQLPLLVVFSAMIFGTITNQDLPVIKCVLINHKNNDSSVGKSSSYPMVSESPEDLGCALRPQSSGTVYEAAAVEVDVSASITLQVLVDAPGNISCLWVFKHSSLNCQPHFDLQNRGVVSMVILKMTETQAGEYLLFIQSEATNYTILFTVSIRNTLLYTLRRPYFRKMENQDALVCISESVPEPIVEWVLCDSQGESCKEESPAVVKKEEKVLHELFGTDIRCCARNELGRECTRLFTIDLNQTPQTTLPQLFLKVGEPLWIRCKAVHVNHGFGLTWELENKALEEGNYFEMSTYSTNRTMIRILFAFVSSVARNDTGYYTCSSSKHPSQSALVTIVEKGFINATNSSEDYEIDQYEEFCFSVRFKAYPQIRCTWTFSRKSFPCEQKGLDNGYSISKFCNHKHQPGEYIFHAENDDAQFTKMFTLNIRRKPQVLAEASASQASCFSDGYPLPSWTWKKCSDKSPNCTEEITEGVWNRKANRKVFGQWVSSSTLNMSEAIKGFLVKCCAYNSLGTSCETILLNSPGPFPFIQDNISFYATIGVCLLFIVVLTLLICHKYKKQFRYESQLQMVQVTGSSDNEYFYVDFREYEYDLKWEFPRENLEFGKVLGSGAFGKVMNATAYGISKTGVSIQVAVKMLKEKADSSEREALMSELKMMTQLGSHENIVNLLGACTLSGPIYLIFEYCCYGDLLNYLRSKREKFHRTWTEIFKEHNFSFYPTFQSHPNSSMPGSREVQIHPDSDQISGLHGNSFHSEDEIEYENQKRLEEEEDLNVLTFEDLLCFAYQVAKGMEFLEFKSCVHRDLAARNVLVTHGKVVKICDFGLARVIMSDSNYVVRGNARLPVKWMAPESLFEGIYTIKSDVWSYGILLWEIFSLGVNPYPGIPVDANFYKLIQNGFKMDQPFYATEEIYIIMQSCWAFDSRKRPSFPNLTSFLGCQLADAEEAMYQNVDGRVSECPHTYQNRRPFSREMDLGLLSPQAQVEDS", "format": "binding", "procedure": "(§1) The assay was carried out using KINOMEscan™ technology. The assay compounds were stored in 100% DMSO. The assay was carried out by means of 3-fold dilution and 11-point fitting. All compounds used for Kd determination were dispersed by ultrasound, then directly diluted and tested. All reactions were carried out in a 384-well polypropylene plate. Each portion has a final volume of 0.02 ml. The plate was incubated with shaking at room temperature for 1 hour, and then processed. The kinase concentration in the eluent was finally determined by qPCR method. Kd was obtained by fitting."}, "FLT3(ITD)": {"molecular_target": "T2, FLT3(ITD) (Homo sapiens, UniProt P36888)", "T2 construct": "fused on or other part: DNA tag for the qPCR read-out (the KINOMEscan format)", "T2 sequence (P36888 1-993)": "T1 sequence (P36888 1-993 D835V) with V835D", "format": "binding", "procedure": "as §1"}}, "note": "Substitutions are numbered along the chain they refer to.", "data": [{"smiles": "CCc1nc(C(N)=O)c(Nc2ccc(N3CCC4(CCN(C)CC4)CC3)c(C)c2)nc1NC1CCOCC1.O=C(O)C(F)(F)F", "values": [{"measurement": "Kd", "setting": "FLT3(ITD, D835V)", "result": 0.2, "unit": "nM"}, {"measurement": "Kd", "setting": "FLT3(ITD)", "result": 3.6, "unit": "nM"}]}]}
